US20060115440A1, “Silver dihydrogen citrate compositions” (priority 2004, published 2006)
Read-outs that look alike come from different tables or passages of the source.

Columns and labels:
[1] = system: Corynebacterium xerosis (ATCC 373)
Source text: (§1) In the Table 57, test solutions contained 100 ppm Ag^+ in 5% citric acid solution at pH 7.0 (adjusted with NaOH).

[2] = system: Escherichia coli (ATCC 10536); details: test solutions contained 100 ppm Ag^+ in 5% citric acid solution at pH 7.0 (adjusted with NaOH)
Source text: as §1

[3] = system: Pseudomonas aeruginosa (ATCC 15442); details: test solutions contained 100 ppm Ag^+ in 5% citric acid solution at pH 7.0 (adjusted with NaOH)
Source text: as §1

[4] = system: Staphylococcus aureus (ATCC 6538); details: test solutions contained 100 ppm Ag^+ in 5% citric acid solution at pH 7.0 (adjusted with NaOH)
Source text: as §1

[5] = system: several varieties of bacteria
Source text: as §1
(§2) In the Table 58, test solutions contained 100 ppm Ag^+ in water at pH 7.0 (adjusted with NaOH).

[6] = system: Candida albicans (ATCC 10231); details: test solutions 100 ppm Ag^+ in water at pH 7.0 (adjusted with NaOH)
Source text: as §2

[7] = system: Chaetomium globosum (ATCC 6205); details: test solutions 100 ppm Ag^+ in water at pH 7.0 (adjusted with NaOH)
Source text: as §2

[8] = system: Corynebacterium minutissimum (ATCC 23348); details: test solutions 100 ppm Ag^+ in water at pH 7.0 (adjusted with NaOH)
Source text: as §2

[9] = system: Epidermophyton floccosum DSM 10709; details: test solutions 100 ppm Ag^+ in water at pH 7.0 (adjusted with NaOH)
Source text: as §2

[10] = system: Malessezia furfur (DSM 6171); details: test solutions 100 ppm Ag^+ in water at pH 7.0 (adjusted with NaOH)
Source text: as §2

[11] = system: Propionibacterium acnes (ATCC 6919); details: test solutions 100 ppm Ag^+ in water at pH 7.0 (adjusted with NaOH)
Source text: as §2

[12] = system: Trichophyton mentagrophytes (ATCC 9533); details: test solutions 100 ppm Ag^+ in water at pH 7.0 (adjusted with NaOH)
Source text: as §2

[13] = system: Trichophyton rubrum (ATCC 10218); details: test solutions 100 ppm Ag^+ in water at pH 7.0 (adjusted with NaOH)
Source text: as §2

[14] = in a mixture of anion, non-ionic and amphoteric surfactants
[15] = system: bacteria, fungi and viruses

O=C(O)CC(O)(CC(=O)O)C(=O)[O-].[Ag+] [Silver dihydrogen citrate, silver dihydrogen citrate]
Minimum Inhibitory Concentration (MIC) ([1]; Corynebacterium xerosis (ATCC 373), test solutions 100 ppm Ag^+ in water at pH 7.0 (adjusted with NaOH)): 3.0 μg/ml Ag^+ | Minimum Inhibitory Concentration (MIC) ([1]; test solutions contained 100 ppm Ag^+ in 5% citric acid solution at pH 7.0 (adjusted with NaOH)): 2.0 μg/ml Ag^+ | Minimum Inhibitory Concentration (MIC) [2]: 2.0 μg/ml Ag^+ | Minimum Inhibitory Concentration (MIC) [3]: 4.0 μg/ml Ag^+ | Minimum Inhibitory Concentration (MIC) [4]: 4.0 μg/ml μg/ml Ag^+ | effect on several varieties of bacteria (in words) [5]: bacteriostatic | Minimum Inhibitory Concentration (MIC) [6]: 3.0 μg/ml Ag^+ | Minimum Inhibitory Concentration (MIC) [7]: 12-24 μg/ml Ag^+ | Minimum Inhibitory Concentration (MIC) [8]: 3.0 μg/ml Ag^+ | Minimum Inhibitory Concentration (MIC) [9]: 12-48 μg/ml Ag^+ | Minimum Inhibitory Concentration (MIC) [10]: 6.0 μg/ml Ag^+ | Minimum Inhibitory Concentration (MIC) [11]: 6.0 μg/ml Ag^+ | Minimum Inhibitory Concentration (MIC) [12]: 12-24 μg/ml Ag^+ | Minimum Inhibitory Concentration (MIC) [13]: 12-48 μg/ml Ag^+ | time-wise stability of the antimicrobial activity [14]: stable and showed good preservation | antimicrobial activity (in words) [15]: antimicrobial activity against a variety of microbes
